Assay results published in paper PMC5581314, “Targeting the Type II Secretion System: Development, Optimization, and Validation of a High-Throughput Screen for the Identification of Small Molecule Inhibitors” (Frontiers in Cellular and Infection Microbiology, 2017).

molecular target: T1, LipA (Acinetobacter baumannii, UniProt A0ABX6CKD6); assay: 4-nitrophenyl myristate lipase assay; IC50 in whole culture, direct inhibition by cell-free supernatant counter-screen; type: cell-based; settings: not given
T1 construct: gene lip; secreted LipA from plasmid-encoded lipBA, in culture supernatant

Row | Compound | IC50 [µM]
1 | CNCCCN1c2ccccc2CCc2ccccc21 [Desiprimine] | 16.5
2 | CCCCCCCCCCC[C@@H](C[C@@H]1OC(=O)[C@H]1CCCCCC)OC(=O)[C@H](CC(C)C)NC=O [Orlistat] | 0.0406

same assay, conditions: read-out: IC50

Row | Compound | IC50 [µM]
3 | CNCCC=C1c2ccccc2CCc2ccccc21 [Aventyl] | 14.5
4 | CN(CCCN1c2ccccc2CCc2ccccc21)CC(=O)c1ccc(Cl)cc1 [Lofepramine] | 21
5 | CNCCC=C1c2ccccc2C=Cc2ccccc21 [Norcyclobenzaprine] | 16
6 | CNCCCC1c2ccccc2C=Cc2ccccc21 [Vivactil] | 10
